Assay results taken from patent US20100152129A1 (priority 2008, published 2010).
“And” between values parts separate entries of the source, which are not always exact repeats. Equal values may be shown once.

Key:
Panc-1 cells [1] = assay: Protein expression using high content cell imaging system, and efficacy score; assay type: cell-based; details: for Efficacy score: cumulative over proteins of Table 7
Experimental: The data was generated using cell imaging system, where, cells after drug exposure were treated with protein specific antibody, followed by detection markers for the antibody. The images were generated and protein levels quantitated as an indication of drug effect.
Methodology: Panc-1 cells were seeded at a density of 5000 cells per well in 96 well plates and allowed recovery for 24 hrs in 5% CO2 incubator. After recovery, cells were challenged with Gemcitabine (IC30) for 24 hrs. After 24 hrs Gemcitabine was removed and fresh medium was added. […] The combination efficacy was identified against single treatments. At the end of the experiment Panc-1 cells were fixed and permeabilized. All the primary antibodies were added at a concentration according to manufacture protocol. After one hour incubation the cells were washed three times and labeled with secondary antibodies tagged with Dye Light 548 and nucleus was stained with Hoechest3342. After antibody labeling, cells were stained with the Cellomics whole Cell Stain Green to identify the cell's cytoplasmic area. Then all the plates were scanned in Cellomics ArrayScan® VTI HCS Reader. The results were analyzed using software that is designed for measuring the read from the imaging system.
Expression of proteins listed in Table 7 were determined in terms of fluorescence unit obtained by using target activation algorithm from High content imaging system from Cellomics. • Protein expression data expressed as fluorescent units from Table 7 were used to generate expression ratio by comparing drug treatments (individual or combination) against the normal control with no drug treatment. The ratio of expression which is considered as dys-regulation (1.5 fold above or below the range for up-regulation and down regulation respectively) is subtracted from the normal range (±1.5) and is used to measure the efficacy score.
Expression ratio=protein expression during drug treatment/protein expression under normal control.
Efficacy score =Cumulative score (expression ratio−±1.50) for all proteins.

[2] = preclinical studies; cited from earlier work
[3] = system: xenograft models of colon cancer (HCT-116, SW-480) and non-small cell lung cancer (H-460); details: oral administration; SCID mice; cited from earlier work
Panc-1 cells [4] = assay: CCK-8 based cytotoxicity assay; assay type: cell-based
Text: CCK-8 based cytotoxicity assay is a sensitive nonradioactive colorimetric assay for determining the number of viable cells in cell proliferation and cytotoxicity assays. WST-8 (2-(2-methoxy-4-nitrophenyl)-3-(4-nitrophenyl)-5-(2,4-disulfophenyl)-2H tetrazolium, monosodium salt) is bioreduced by cellular dehydrogenases to an orange formazan product that is soluble in tissue culture medium. The amount of formazan produced is directly proportional to the number of living cells.
Test System: The Panc-1 cell line was procured from ATCC (American Tissue type Culture Collection USA, catalog number: CRL-1469) and the frozen vial was stored in liquid nitrogen container.
Panc-1 cells were seeded at a density of 3000 cells/well in a 96 well plate and allowed to recover for 24 hrs in a CO2 incubator at 37° C. […] The final DMSO concentration was 0.5% in wells. Plates were incubated for 24, 48, and 72 hrs. At the end of incubation CCK-8 was added and kept at 37° C. for 3 hrs following which absorbance was measured at 450 nm.

[5] = 6 hours post treatment, control 3
[6] = 36 hours post treatment, control 98

**Q.** With CN1CC[C@@H](c2c(O)cc(O)c3c(=O)cc(-c4ccc(C(F)(F)F)cc4Cl)oc23)[C@@H]1CO.Cl (relative stereo) [P1446A] as the compound, how does the PTN protein expression (Panc-1 cells [1]; 6 hours post treatment, control 1) read?
**A.** 3 fluorescence units

**Q.** What about the GADD45-α protein expression (Panc-1 cells [1]; [5]) of the same compound?
**A.** 3 fluorescence units

**Q.** What about the ID1 protein expression (Panc-1 cells [1]; [5]) of the same compound?
**A.** 38 fluorescence units

**Q.** And the P27 protein expression (Panc-1 cells [1]; 6 hours post treatment, control 6)?
**A.** 4 fluorescence units

**Q.** What about the CDC25B protein expression (Panc-1 cells [1]; 6 hours post treatment, control 7) of the same compound?
**A.** 4 fluorescence units

**Q.** What about the CDKN2A protein expression (Panc-1 cells [1]; 6 hours post treatment, control 8) of the same compound?
**A.** 49 fluorescence units

**Q.** What about the CCND1 protein expression (Panc-1 cells [1]; 6 hours post treatment, control 74) of the same compound?
**A.** 87 fluorescence units

**Q.** What about the GAPDH protein expression (Panc-1 cells [1]; 6 hours post treatment, control 80) of the same compound?
**A.** 78 fluorescence units

**Q.** What about the CASP3 protein expression (Panc-1 cells [1]; 6 hours post treatment, control 147) of the same compound?
**A.** 102 fluorescence units

**Q.** And the MMP-1 protein expression (Panc-1 cells [1]; 6 hours post treatment, control 501)?
**A.** 235 fluorescence units

**Q.** What about the COX15 protein expression (Panc-1 cells [1]; 6 hours post treatment, control 627) of the same compound?
**A.** 628 fluorescence units

**Q.** What about the COX2 protein expression (Panc-1 cells [1]; 6 hours post treatment, control 635) of the same compound?
**A.** 457 fluorescence units

**Q.** What about the BAX protein expression (Panc-1 cells [1]; 6 hours post treatment, control 819) of the same compound?
**A.** 421 fluorescence units

**Q.** What about the VEGF protein expression (Panc-1 cells [1]; 6 hours post treatment, control 829) of the same compound?
**A.** 235 fluorescence units

**Q.** What about the BCL2 protein expression (Panc-1 cells [1]; 6 hours post treatment, control 830) of the same compound?
**A.** 587 fluorescence units

**Q.** And the pRB protein expression (Panc-1 cells [1]; 6 hours post treatment, control 1240)?
**A.** 1489 fluorescence units

**Q.** What about the Efficacy score (Panc-1 cells [1]; 6 hours) of the same compound?
**A.** 2.1

**Q.** And the GADD45-α protein expression (Panc-1 cells [1]; 16 hours post treatment, control 13)?
**A.** 46 fluorescence units

**Q.** And the CDC25B protein expression (Panc-1 cells [1]; 16 hours post treatment, control 54)?
**A.** 45 fluorescence units

**Q.** What about the CDKN2A protein expression (Panc-1 cells [1]; 16 hours post treatment, control 64) of the same compound?
**A.** 55 fluorescence units

**Q.** And the P27 protein expression (Panc-1 cells [1]; 16 hours post treatment, control 67)?
**A.** 37 fluorescence units

**Q.** And the PTN protein expression (Panc-1 cells [1]; 16 hours post treatment, control 76)?
**A.** 34 fluorescence units

**Q.** What about the ID1 protein expression (Panc-1 cells [1]; 16 hours post treatment, control 77) of the same compound?
**A.** 67 fluorescence units

**Q.** And the CCND1 protein expression (Panc-1 cells [1]; 16 hours post treatment, control 90)?
**A.** 85 fluorescence units

**Q.** And the GAPDH protein expression (Panc-1 cells [1]; 16 hours post treatment, control 100)?
**A.** 100 fluorescence units

**Q.** And the CASP3 protein expression (Panc-1 cells [1]; 16 hours post treatment, control 202)?
**A.** 1157 fluorescence units

**Q.** What about the VEGF protein expression (Panc-1 cells [1]; 16 hours post treatment, control 579) of the same compound?
**A.** 420 fluorescence units

**Q.** What about the BCL2 protein expression (Panc-1 cells [1]; 16 hours post treatment, control 644) of the same compound?
**A.** 546 fluorescence units

**Q.** What about the BAX protein expression (Panc-1 cells [1]; 16 hours post treatment, control 711) of the same compound?
**A.** 688 fluorescence units

**Q.** And the COX15 protein expression (Panc-1 cells [1]; 16 hours post treatment, control 718)?
**A.** 896 fluorescence units

**Q.** And the MMP-1 protein expression (Panc-1 cells [1]; 16 hours post treatment, control 929)?
**A.** 420 fluorescence units

**Q.** What about the COX2 protein expression (Panc-1 cells [1]; 16 hours post treatment, control 1109) of the same compound?
**A.** 1063 fluorescence units

**Q.** What about the pRB protein expression (Panc-1 cells [1]; 16 hours post treatment, control 2583) of the same compound?
**A.** 1721 fluorescence units

**Q.** What about the Efficacy score (Panc-1 cells [1]; 16 hours) of the same compound?
**A.** 10.3

**Q.** What about the GADD45-α protein expression (Panc-1 cells [1]; 36 hours post treatment, control 19) of the same compound?
**A.** 43 fluorescence units

**Q.** And the COX2 protein expression (Panc-1 cells [1]; 36 hours post treatment, control 86)?
**A.** 43 fluorescence units

**Q.** And the P27 protein expression (Panc-1 cells [1]; 36 hours post treatment, control 96)?
**A.** 65 fluorescence units

**Q.** What about the CCND1 protein expression (Panc-1 cells [1]; [6]) of the same compound?
**A.** 55 fluorescence units

**Q.** And the CDC25B protein expression (Panc-1 cells [1]; [6])?
**A.** 70 fluorescence units

**Q.** What about the GAPDH protein expression (Panc-1 cells [1]; [6]) of the same compound?
**A.** 63 fluorescence units

**Q.** And the ID1 protein expression (Panc-1 cells [1]; [6])?
**A.** 83 fluorescence units

**Q.** And the PTN protein expression (Panc-1 cells [1]; 36 hours post treatment, control 100)?
**A.** 99 fluorescence units

**Q.** What about the CASP3 protein expression (Panc-1 cells [1]; 36 hours post treatment, control 265) of the same compound?
**A.** 1220 fluorescence units

**Q.** And the BAX protein expression (Panc-1 cells [1]; 36 hours post treatment, control 715)?
**A.** 1670 fluorescence units

**Q.** And the COX15 protein expression (Panc-1 cells [1]; 36 hours post treatment, control 722)?
**A.** 1878 fluorescence units

**Q.** And the VEGF protein expression (Panc-1 cells [1]; 36 hours post treatment, control 1093)?
**A.** 1195 fluorescence units

**Q.** What about the MMP-1 protein expression (Panc-1 cells [1]; 36 hours post treatment, control 1316) of the same compound?
**A.** 1195 fluorescence units

**Q.** What about the BCL2 protein expression (Panc-1 cells [1]; 36 hours post treatment, control 1410) of the same compound?
**A.** 1330 fluorescence units

**Q.** And the CDKN2A protein expression (Panc-1 cells [1]; 36 hours post treatment, control 1441)?
**A.** 1395 fluorescence units

**Q.** And the pRB protein expression (Panc-1 cells [1]; 36 hours post treatment, control 2840)?
**A.** 1978 fluorescence units

**Q.** What about the Efficacy score (Panc-1 cells [1]; 36 hours) of the same compound?
**A.** 7.6

**Q.** And the oral bioavailability [2]?
**A.** good oral bioavailability

**Q.** And the tumor growth inhibition [3]?
**A.** significant tumor growth inhibition

**Q.** And the “% Cytotoxicity” value (Panc-1 cells [4]; P1446A 30 nM, 24 hrs)?
**A.** 29.825%

**Q.** What about the “% Cytotoxicity” value (Panc-1 cells [4]; P1446A 30 nM, 72 hrs) of the same compound?
**A.** 23.33%

**Q.** And the “% Cytotoxicity” value (Panc-1 cells [4]; P1446A 100 nM, 24 hrs)?
**A.** 26.525%

**Q.** What about the “% Cytotoxicity” value (Panc-1 cells [4]; P1446A 100 nM, 48 hrs) of the same compound?
**A.** 24.596%

**Q.** And the “% Cytotoxicity” value (Panc-1 cells [4]; P1446A 300 nM, 24 hrs)?
**A.** 34.36%

**Q.** What about the “% Cytotoxicity” value (Panc-1 cells [4]; P1446A 300 nM, 48 hrs) of the same compound?
**A.** 28.636%

**Q.** And the “% Cytotoxicity” value (Panc-1 cells [4]; P1446A 300 nM, 72 hrs, hydrochloride)?
**A.** 31.05% and 31.075%
